pIC50: −log10 of the molar value. Like-named read-outs stand apart in the source and are kept apart here. Each block holds one molecule with its values, some of them ahead of it.
Key:
MDA-MB-468 = test: Cell proliferation assay (CellTiter-Glo, 96 h), MDA-MB-468; type: cell-based; conditions: Homo sapiens
Method: (§1) In accordance with the invention, the substances were tested in cell-based assays for the ability of the substances of inhibiting tumour cell proliferation after a 96-hour incubation with the substance. Cell viability was tested using the CellTiter-Glo® luminescent cell viability assay (Promega). The cells were sown at a density of 2000-5000 cells/well (depending on the cell line) in 100 μl growth medium on 96-well microtitre plates. For each cell line examined, cells were sown on a separate plate to determine the luminescence at t=0 hours and t=96 hours. After overnight incubation at 37° C., the luminescence values for the t=0 samples were determined. The dose plates for the t=96 hours points in time were treated with substances diluted with growth medium. The cells were then incubated at 37° C. for 96 hours, and the luminescence values for the t=96 hours sample were then determined. For data analysis, the t=0 values were subtracted from the t=96 hour values for treated and untreated samples. The differences in luminescence in percent between substance-treated samples and control values were used to determine the growth inhibition in percent.
(§2) The substances were tested in the following cell lines which represent the stated indications in an exemplary manner: […]

MDA-MB-436 = test: Cell proliferation assay (CellTiter-Glo, 96 h), MDA-MB-436; type: cell-based; conditions: Homo sapiens
Method: as §1, §2

[1] = biological target: T1, human ACC1 (acetyl-coenzyme A carboxylase alpha transcript variant 1) (Homo sapiens, UniProt Q13085); test: Human ACC1 enzyme assay, Assay B1 (ADP-Glo); type: biochemical
T1 construct: FLAG (C); made in house; host or cells: baculovirus-infected insect cells (Hi5)
Method: Essentially, the enzyme activity is measured by quantifying the adenosine diphosphate (ADP) formed as a byproduct of the enzyme reactions using the ADP-Glo™ detection system from Promega. In this test, initially the adenosine triphosphate (ATP) not consumed in the enzyme reaction is converted quantitatively with an adenylate cyclase (“ADP-GLO reagent”) into cAMP, the adenylate cyclase is then stopped and (“kinase detection reagent”) the ADP formed is subsequently converted into ATP, which is converted in a luciferase-based reaction into a glow luminescence signal.
The concentration of the hACC1 was adapted to the respective activity of the enzyme and adjusted such that the assay operated in the linear range. […] The amount of light emitted was taken as a measure for the amount of ADP formed and thus for the enzyme activity of the hACC1.

MCF7 = test: Cell proliferation assay (CellTiter-Glo, 96 h), MCF7; type: cell-based; conditions: Homo sapiens
In short: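 Growth inhibition in percent was based on luminescence differences between treated and control samples after subtracting baseline readings taken at t=0. Cells had been incubated with compound for 96 hours at 37° C. following overnight plating.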

HCC-1937 = test: Cell proliferation assay (CellTiter-Glo, 96 h), HCC-1937; type: cell-based; conditions: Homo sapiens, HCC1937
Method: as §1, §2

[2] = test system: malonyl-CoA in a tumour (human MCF-7 breast cancer cells); test: Mode-of-action experiment: intratumour malonyl-CoA in MCF-7 tumours after oral administration; type: in vivo, female nude mice (NMRI-nude (nu/nu)); conditions: Mus musculus, after 7 h
Method: Mode-of-Action Experiment
Prior to the determination of the activity in the MCF-7 model, some of the test substances were examined in a “mode of action” experiment. The principle of this experiment is that short-term application of a test substance capable of inhibiting ACC1 and/or ACC2 in a living organism after oral administration reduces malonyl-CoA in a tumour. To this end, in the experiment 2 million human MCF-7 breast cancer cells were injected subcutaneously into female nude mice (NMRI-nude (nu/nu) mice, Taconic M&B A/S, 1 day beforehand administration of a pellet for the release of oestrogen over a period of at least 60 days). Once the tumour extended to an area of about 60-70 mm^2, the test substance was administered orally over a period of 1-3 days, and at defined points in time the intratumour content of malonyl-CoA was then determined and compared to the vehicle control. The method is described in Anal Chem 2008 Aug. 1; 80(15):5736-42. Epub 2008 Jul. 9.).

Miapaca = test: Cell proliferation assay (CellTiter-Glo, 96 h), Miapaca; type: cell-based; conditions: Homo sapiens, MIA PaCa-2
Method: as §1, §2

[3] = biological target: human ACC2 (acetyl-coenzyme A carboxylase 2) (Homo sapiens, UniProt O00763); test: Human ACC2 enzyme assay, Assay B2 (ADP-Glo);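 further: human ACC2 activity read as ADP product, detected by luciferase glow luminescence after residual ATP removal, enzyme near 2 ng/µl in linear range, detection steps at 22 °C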
KM12 = test: Cell proliferation assay (CellTiter-Glo, 96 h), KM12; type: cell-based; conditions: Homo sapiens, 96-hour incubation
Method: as §1, §2

[4] = biological target: acetyl-CoA carboxylase 2 (ACC2) (Homo sapiens, UniProt O00763); test: Human ACC2 enzyme assay, Assay A2 (HTRF ADP immunoassay);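 further: ADP generated by ACC2 quantified via competitive time-resolved FRET between europium cryptate anti-ADP antibody and d2-tagged ADP, enzyme kept in linear range near 0.6 ng/µl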
Method: The inhibitory activity of the substances of this invention with regard to acetyl-CoA carboxylase 2 (ACC2) was measured using the ACC2 assay described in the paragraphs below. The basic principle of the assay is the measurement of adenosine diphosphate (ADP), which is formed as a by-product, by means of an HTRF®-based competitive immunoassay (HTRF=Homogeneous Time Resolved Fluorescence).
The amount of complex of d2-labelled ADP and europium cryptate-labelled anti-ADP antibody was then determined by measuring the resonance energy transfer of europium cryptate to d2.

recombinant human ACC1 = recombinant human ACC1 (Homo sapiens, UniProt Q13085); test: Human ACC1 enzyme assay, Assay A1 (HTRF ADP immunoassay);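 further: ADP generated by the enzyme quantified via competitive time-resolved FRET, read as europium cryptate to d2 energy transfer after 1 h at 22 °C with labelled ADP tracer and anti-ADP antibody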
ECC1 = test: Cell proliferation assay (CellTiter-Glo, 96 h), ECC1; type: cell-based; conditions: Homo sapiens, ECC-1; 96-hour incubation
Method: as §1, §2

[5] = In-vitro dissolution of the pharmaceutical formulation (USP apparatus 2, paddle method); type: physicochemical; conditions: pH 1 and pH 6.8 (reason for adding SDS)
Method: c) In-Vitro Dissolution of the Pharmaceutical Formulation […] The release test was in each case carried out in 900 ml of various media at 37° C. and with a stirrer speed of 75 rotations per minute (FIG. 2). Each determination was carried out in three replications. The content was determined by HPLC.

Du145 = test: Cell proliferation assay (CellTiter-Glo, 96 h), Du145; type: cell-based; conditions: Homo sapiens, DU-145; 96-hour incubation
Method: as §1, §2

PC3 = test: Cell proliferation assay (CellTiter-Glo, 96 h), PC3; type: cell-based; conditions: Homo sapiens, PC-3; 96-hour incubation
Method: as §1, §2

HEC1A = test: Cell proliferation assay (CellTiter-Glo, 96 h), HEC1A; type: cell-based; conditions: Homo sapiens, HEC-1-A; 96-hour incubation
Method: as §1, §2

[6] = biological target: ACCase enzyme extracted from oat seedlings (Avena sativa, UniProt A0ACD5YD93); test: Non-human ACCase assay (malachite green phosphate detection); type: biochemical; conditions: comparative compounds, Table V.2; read-out: ACC-non human IC50
Method: The assay was carried out at room temperature in a transparent 384-well microtitre plate. It determined the inorganic phosphate released from the ATP in the ACCase reaction.
The test mixture contained 50 mM Tris-HCl pH 8.3, 50 mM KCl, 2.5 mM MgCl2, 0.5 mM ATP, 0.8 mM dithiothreitol (DTT), 30 mM NaHCO3, 0.1 mM acetyl-CoA, 0.04% bovine serum albumin and 0.4 μg partially purified ACCase enzyme in a final volume of 40 μl. After 45 minutes of incubation, the reaction was stopped with 150 μl of malachite green solution, and the absorption at […] was read after 30 minutes.
The malachite green (MG) solution was prepared by mixing 3 parts of 0.6 mM MG-HCl solution in distilled water with 1 part of 8.5 mM ammonium molybdate in 4 M HCl. The solution was allowed to stand for 30 minutes. After filtration through a 0.45 μm polytetrafluoroethylene (PTFE) filter, 0.1 part of Triton X-100 (1.5%) in distilled water was added.
ACCase enzyme was extracted from oat seedlings 9 days after sowing and partially purified by precipitation with 0-40% ammonium sulphate followed by ion exchange chromatography on Q-Sepharose.

[7] = MCF7, Table 7, 96-hour incubation
[8] = Assay B1, read-out: ACC 1 (=B1) IC50
[9] = MCF7, 10 mg/kg oral, MCF-7 tumour in nude mice, vs vehicle

Sequence of acetyl-CoA carboxylase 2 (ACC2) (O00763 39-2458 limits assumed): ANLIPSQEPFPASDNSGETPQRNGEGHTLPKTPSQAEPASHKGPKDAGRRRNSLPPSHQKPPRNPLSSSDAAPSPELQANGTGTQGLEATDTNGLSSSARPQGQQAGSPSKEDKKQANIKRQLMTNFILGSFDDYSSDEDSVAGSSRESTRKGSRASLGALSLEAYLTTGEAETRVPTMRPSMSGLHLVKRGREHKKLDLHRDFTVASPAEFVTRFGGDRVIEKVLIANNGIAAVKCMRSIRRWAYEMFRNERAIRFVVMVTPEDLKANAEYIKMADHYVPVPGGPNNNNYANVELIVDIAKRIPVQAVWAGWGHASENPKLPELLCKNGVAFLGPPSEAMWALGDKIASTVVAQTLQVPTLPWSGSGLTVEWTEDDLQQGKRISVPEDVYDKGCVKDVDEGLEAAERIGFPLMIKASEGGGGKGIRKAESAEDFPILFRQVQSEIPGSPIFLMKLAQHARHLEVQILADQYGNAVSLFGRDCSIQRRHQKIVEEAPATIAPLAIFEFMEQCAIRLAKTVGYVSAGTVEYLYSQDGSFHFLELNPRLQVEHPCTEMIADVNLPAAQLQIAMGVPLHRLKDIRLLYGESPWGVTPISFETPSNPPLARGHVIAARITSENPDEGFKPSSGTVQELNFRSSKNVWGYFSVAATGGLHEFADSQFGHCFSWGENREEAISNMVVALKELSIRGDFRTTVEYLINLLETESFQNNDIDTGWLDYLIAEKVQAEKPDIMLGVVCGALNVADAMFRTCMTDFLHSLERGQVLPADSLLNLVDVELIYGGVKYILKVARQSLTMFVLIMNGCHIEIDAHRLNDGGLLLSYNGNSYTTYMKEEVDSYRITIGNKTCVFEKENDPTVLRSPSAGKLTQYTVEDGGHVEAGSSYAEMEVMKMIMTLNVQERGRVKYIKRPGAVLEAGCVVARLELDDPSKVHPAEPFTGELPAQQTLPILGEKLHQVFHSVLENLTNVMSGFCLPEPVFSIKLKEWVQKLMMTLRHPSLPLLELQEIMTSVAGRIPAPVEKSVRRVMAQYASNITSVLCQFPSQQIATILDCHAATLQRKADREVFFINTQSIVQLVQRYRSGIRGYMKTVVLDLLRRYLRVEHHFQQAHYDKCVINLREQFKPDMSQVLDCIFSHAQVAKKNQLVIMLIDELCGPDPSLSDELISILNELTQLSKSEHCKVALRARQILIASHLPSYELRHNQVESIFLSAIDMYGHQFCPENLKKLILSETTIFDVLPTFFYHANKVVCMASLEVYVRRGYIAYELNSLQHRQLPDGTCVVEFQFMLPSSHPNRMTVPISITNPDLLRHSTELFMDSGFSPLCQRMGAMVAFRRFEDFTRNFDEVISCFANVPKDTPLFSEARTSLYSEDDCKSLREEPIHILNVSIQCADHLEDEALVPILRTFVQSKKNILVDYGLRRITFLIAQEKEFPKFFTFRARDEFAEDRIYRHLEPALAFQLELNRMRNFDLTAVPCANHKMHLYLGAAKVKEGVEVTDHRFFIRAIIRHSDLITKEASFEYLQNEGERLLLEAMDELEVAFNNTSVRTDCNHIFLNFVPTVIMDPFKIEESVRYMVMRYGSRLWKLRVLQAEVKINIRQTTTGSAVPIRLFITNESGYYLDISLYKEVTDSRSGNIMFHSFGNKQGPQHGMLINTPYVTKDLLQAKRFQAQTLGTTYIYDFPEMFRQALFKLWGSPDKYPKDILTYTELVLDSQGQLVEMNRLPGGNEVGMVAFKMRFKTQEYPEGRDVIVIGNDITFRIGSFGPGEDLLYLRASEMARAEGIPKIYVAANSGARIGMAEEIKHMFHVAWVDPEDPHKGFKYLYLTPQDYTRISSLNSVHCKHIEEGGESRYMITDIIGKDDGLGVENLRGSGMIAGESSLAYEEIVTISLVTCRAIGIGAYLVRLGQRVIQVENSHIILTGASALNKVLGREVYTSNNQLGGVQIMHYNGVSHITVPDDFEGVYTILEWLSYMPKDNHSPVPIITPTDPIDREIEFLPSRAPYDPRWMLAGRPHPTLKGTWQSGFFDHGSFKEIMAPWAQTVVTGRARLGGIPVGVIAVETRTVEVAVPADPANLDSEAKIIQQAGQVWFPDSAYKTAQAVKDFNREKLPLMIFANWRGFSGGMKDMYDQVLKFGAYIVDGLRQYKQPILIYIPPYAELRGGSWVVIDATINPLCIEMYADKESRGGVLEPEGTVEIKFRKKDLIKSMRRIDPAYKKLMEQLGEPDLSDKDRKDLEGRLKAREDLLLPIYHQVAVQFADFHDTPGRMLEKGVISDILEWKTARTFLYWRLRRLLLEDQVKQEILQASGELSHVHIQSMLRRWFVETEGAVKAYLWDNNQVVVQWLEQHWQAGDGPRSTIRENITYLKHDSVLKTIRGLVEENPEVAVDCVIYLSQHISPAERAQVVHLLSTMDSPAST
Sequence of human ACC2 (acetyl-coenzyme A carboxylase 2) (O00763 27-2458 limits assumed): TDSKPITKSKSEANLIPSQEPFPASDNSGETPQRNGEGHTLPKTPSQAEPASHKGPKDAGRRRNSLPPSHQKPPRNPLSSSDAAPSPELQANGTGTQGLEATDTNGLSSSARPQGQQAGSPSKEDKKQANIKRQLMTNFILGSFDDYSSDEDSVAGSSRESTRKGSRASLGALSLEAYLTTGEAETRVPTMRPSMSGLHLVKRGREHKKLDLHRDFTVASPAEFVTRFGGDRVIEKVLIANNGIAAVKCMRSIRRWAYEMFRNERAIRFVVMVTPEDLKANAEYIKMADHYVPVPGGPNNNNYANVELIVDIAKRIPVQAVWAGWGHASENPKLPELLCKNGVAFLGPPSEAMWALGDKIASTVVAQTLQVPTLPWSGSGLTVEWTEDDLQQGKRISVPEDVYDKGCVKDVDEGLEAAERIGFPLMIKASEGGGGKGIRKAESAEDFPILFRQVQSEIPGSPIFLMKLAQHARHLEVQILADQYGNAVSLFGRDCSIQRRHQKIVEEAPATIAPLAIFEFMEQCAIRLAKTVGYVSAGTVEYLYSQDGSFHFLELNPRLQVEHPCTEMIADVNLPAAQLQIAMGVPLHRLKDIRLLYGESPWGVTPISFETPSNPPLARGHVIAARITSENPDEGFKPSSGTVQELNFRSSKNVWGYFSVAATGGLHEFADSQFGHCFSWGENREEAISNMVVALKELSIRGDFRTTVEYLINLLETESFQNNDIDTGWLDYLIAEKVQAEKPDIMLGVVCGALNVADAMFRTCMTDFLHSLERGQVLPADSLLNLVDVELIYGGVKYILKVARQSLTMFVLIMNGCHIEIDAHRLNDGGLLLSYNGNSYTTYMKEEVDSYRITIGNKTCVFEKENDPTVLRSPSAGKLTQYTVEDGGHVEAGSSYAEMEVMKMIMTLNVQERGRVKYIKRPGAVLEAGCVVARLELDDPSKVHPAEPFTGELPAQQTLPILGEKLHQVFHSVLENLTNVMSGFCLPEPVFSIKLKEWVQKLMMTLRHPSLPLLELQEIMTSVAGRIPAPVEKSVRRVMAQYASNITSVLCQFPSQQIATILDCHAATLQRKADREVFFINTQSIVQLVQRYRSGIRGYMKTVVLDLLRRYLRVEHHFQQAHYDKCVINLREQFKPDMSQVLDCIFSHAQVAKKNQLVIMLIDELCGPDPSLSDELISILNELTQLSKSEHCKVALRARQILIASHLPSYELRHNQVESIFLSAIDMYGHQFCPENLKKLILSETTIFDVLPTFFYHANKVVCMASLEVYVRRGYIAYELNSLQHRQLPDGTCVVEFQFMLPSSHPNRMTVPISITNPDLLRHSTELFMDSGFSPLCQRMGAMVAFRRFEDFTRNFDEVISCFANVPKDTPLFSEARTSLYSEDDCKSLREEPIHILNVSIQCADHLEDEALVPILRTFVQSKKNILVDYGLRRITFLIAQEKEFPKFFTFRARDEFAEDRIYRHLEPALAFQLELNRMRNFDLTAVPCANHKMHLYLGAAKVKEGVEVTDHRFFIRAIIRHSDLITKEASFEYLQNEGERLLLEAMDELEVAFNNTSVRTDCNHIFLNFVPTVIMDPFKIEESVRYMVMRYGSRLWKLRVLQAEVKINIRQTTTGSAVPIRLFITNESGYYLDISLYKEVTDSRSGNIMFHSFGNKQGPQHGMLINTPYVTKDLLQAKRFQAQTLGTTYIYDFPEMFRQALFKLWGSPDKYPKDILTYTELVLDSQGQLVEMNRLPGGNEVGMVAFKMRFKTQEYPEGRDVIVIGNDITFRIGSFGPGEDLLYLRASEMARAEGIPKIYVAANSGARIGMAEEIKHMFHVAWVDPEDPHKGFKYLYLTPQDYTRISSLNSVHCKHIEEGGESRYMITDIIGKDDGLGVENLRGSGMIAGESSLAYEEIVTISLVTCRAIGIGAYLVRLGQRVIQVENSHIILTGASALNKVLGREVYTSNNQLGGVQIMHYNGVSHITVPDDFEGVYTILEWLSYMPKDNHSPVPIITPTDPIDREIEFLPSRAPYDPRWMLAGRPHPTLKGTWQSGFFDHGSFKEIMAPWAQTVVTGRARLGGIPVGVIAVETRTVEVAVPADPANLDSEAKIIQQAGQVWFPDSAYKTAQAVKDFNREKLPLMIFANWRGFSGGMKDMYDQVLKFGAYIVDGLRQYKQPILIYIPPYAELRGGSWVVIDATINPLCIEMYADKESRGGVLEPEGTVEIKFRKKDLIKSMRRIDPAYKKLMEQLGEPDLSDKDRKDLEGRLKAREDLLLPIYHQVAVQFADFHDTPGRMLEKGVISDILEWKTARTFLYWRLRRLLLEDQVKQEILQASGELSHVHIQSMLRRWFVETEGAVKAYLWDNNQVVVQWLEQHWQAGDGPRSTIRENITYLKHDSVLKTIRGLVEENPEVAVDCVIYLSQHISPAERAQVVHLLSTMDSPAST

SMILES: Cc1ccc(-c2ccc(Cl)cc2)c(C)c1C1=C(O)C2(CCOCC2)NC1=O [1-1, 3-(4′-chloro-2,4-dimethylbiphenyl-3-yl)-4-hydroxy-8-oxa-1-azaspiro[4.5]dec-3-en-2-one]
pIC50 (MDA-MB-468; MDA-MB-468, 96-hour incubation): 6.56
pIC50 (MDA-MB-436; MDA-MB-436, 96-hour incubation): 6.85
pIC50 [1]: 6.61
pIC50 (MCF7; [7]): 6.10
pIC50 (HCC-1937; 96-hour incubation): 5.97
inhibition in vivo at 10 mg/kg ([2]; MCF7, po, 10 mg/kg, vs Vehicle): 39%
pIC50 (Miapaca; 96-hour incubation): 6.08
pIC50 [3]: < 4.70

SMILES: Cc1ccc(-c2ccc(Cl)cc2)cc1C1=C(O)C2(CCOCC2)NC1=O [1-6, 3-(4′-chloro-4-methylbiphenyl-3-yl)-4-hydroxy-8-oxa-1-azaspiro[4.5]dec-3-en-2-one]
pIC50 (MDA-MB-468; MDA-MB-468, 96-hour incubation): 6.26
pIC50 (MDA-MB-436; MDA-MB-436, 96-hour incubation): 6.50
pIC50 [1]: 6.88
pIC50 (MCF7; [7]): 6.68
pIC50 (HCC-1937; 96-hour incubation): 6.06
inhibition in vivo at 10 mg/kg ([2]; MCF7, po, 10 mg/kg, vs Vehicle): 68%
pIC50 (Miapaca; 96-hour incubation): 5.90
pIC50 [3]: 5.03

SMILES: O=C1N[C@]2(CC[C@@H](OCC(F)(F)F)CC2)C(O)=C1c1cc(-c2ccc(Cl)cc2)ccc1Cl [1-29, (5s,8s)-3-(4,4′-dichlorobiphenyl-3-yl)-4-hydroxy-8-(2,2,2-trifluoroethoxy)-1-azaspiro[4.5]dec-3-en-2-one]
pIC50 [1]: 6.82
pIC50 (MCF7; [7]): 7.49
pIC50 (KM12): 6.88
inhibition in vivo at 10 mg/kg ([2]; MCF7, po, 10 mg/kg, vs Vehicle): 93%
pIC50 [3]: 5.58

pIC50 (MDA-MB-468; MDA-MB-468, 96-hour incubation): 7.13
pIC50 (MDA-MB-436; MDA-MB-436, 96-hour incubation): 7.15
pIC50 [1, 8]: 6.63
pIC50 (MCF7; [7]): 7.57
pIC50 (HCC-1937; 96-hour incubation): 6.97
pIC50 (Miapaca; 96-hour incubation): 6.71
pIC50 [3]: 5.70
SMILES: Cc1ccc(-c2ccc(Cl)cc2)cc1C1=C(O)C2(CCC(OCC(F)(F)F)CC2)NC1=O (stereo not shown) [1-33, 3-(4′-chloro-4-methylbiphenyl-3-yl)-4-hydroxy-8-(2,2,2-trifluoroethoxy)-1-azaspiro[4.5]dec-3-en-2-one]
inhibition in vivo at 10 mg/kg ([2]; MCF7, po, 10 mg/kg, vs Vehicle): 88%

SMILES: CO[C@]1(C)CC[C@]2(CC1)NC(=O)C(c1c(C)ccc(-c3ccc(Cl)cc3)c1C)=C2O [1-87, (5r,8r)-3-(4′-chloro-2,4-dimethylbiphenyl-3-yl)-4-hydroxy-8-methoxy-8-methyl-1-azaspiro[4.5]dec-3-en-2-one]
pIC50 [1]: 6.42
pIC50 [4]: 5.14
inhibition in vivo at 10 mg/kg ([2]; MCF7, po, 10 mg/kg, vs Vehicle): 71%
pIC50 [3]: 4.98
pIC50 (recombinant human ACC1): 6.27

SMILES: COC[C@H]1CC[C@]2(CC1)NC(=O)C(c1cc(-c3ccc(F)c(F)c3)ccc1C)=C2O [1-112, (5s,8s)-3-(3′,4′-Difluoro-4-methylbiphenyl-3-yl)-4-hydroxy-8-(methoxymethyl)-1-azaspiro[4.5]dec-3-en-2-one]
pIC50 [1]: 6.70
pIC50 (MCF7; [7]): 7.10
pIC50 (KM12): 6.76
pIC50 [4]: 5.41
pIC50 [3]: 5.07
pIC50 (recombinant human ACC1): 6.78

SMILES: CO[C@H]1CC[C@]2(CC1)NC(=O)C(c1cc(-c3ccc(Cl)c(F)c3)ccc1C)=C2O [1-118, (5s,8s)-3-(4′-Chloro-3′-fluoro-4-methylbiphenyl-3-yl)-4-hydroxy-8-methoxy-1-azaspiro[4.5]dec-3-en-2-one]
pIC50 [1, 8]: 6.99
pIC50 (MCF7; [7]): 7.43
pIC50 (ECC1): 6.66
solubility in dissolution media [5]: insufficient solubility
pIC50 (Du145): 7.41
pIC50 (KM12): 6.56
pIC50 [4]: 6.16
pIC50 (PC3): 7.60
pIC50 [3]: 5.86
pIC50 (recombinant human ACC1): 6.89
pIC50 (HEC1A): 5.75

SMILES: CO[C@H]1CC[C@]2(CC1)NC(=O)C(c1cc(-c3ccc(Cl)cc3)ccc1Cl)=C2O [1-120, (5s,8s)-3-(4,4′-Dichlorobiphenyl-3-yl)-4-hydroxy-8-methoxy-1-azaspiro[4.5]dec-3-en-2-one]
pIC50 [1]: 6.84
pIC50 (MCF7; [7]): 7.15
pIC50 (KM12): 6.15
pIC50 [4]: 5.89
pIC50 [3]: 5.65
pIC50 (recombinant human ACC1): 6.60

pIC50 [1, 8]: 6.80
pIC50 (MCF7; [7]): 7.48
pIC50 (Du145): 7.54
pIC50 [4]: 5.56
pIC50 (PC3): 7.70
pIC50 [3]: 5.36
pIC50 (recombinant human ACC1): 6.71
SMILES: Cc1ccc(-c2ccc(F)c(F)c2)cc1C1=C(O)[C@]2(CC[C@H](C(F)(F)F)CC2)NC1=O [1-128, (5s,8s)-3-(3′,4′-Difluoro-4-methylbiphenyl-3-yl)-4-hydroxy-8-(trifluoromethyl)-1-azaspiro[4.5]dec-3-en-2-one]
pIC50 (ECC1): 6.86
pIC50 (KM12): 7.13
pIC50 (HEC1A): 6.48

SMILES: Cc1cc(C)c(-c2ccc(Cl)cc2)cc1C1=C(O)[C@]2(CC[C@@]3(CCCO3)CC2)OC1=O [2-30, (5r,8s)-3-(4′-chloro-4,6-dimethylbiphenyl-3-yl)-4-hydroxy-1,9-dioxadispiro[4.2.4.2]tetradec-3-en-2-one]
pIC50 (MDA-MB-468; MDA-MB-468 cells): 6.82
pIC50 (MDA-MB-436; MDA-MB-436 cells): 6.94
pIC50 [1]: 6.16
pIC50 (MCF7; MCF7 cells): 7.19
pIC50 (HCC-1937; HCC-1937 cells): 5.82
inhibition in vivo at 10 mg/kg [2, 9]: 36%
pIC50 (Miapaca; MiaPaca cells): 6.59
pIC50 [3]: 6.61

SMILES: Cc1ccc(-c2ccc(Cl)cc2)cc1C1=C(O)C2(CCC(OCC(F)(F)F)CC2)OC1=O (stereo not shown) [2-33, 3-(4′-chloro-4-methylbiphenyl-3-yl)-4-hydroxy-8-(2,2,2-trifluoroethoxy)-1-oxaspiro[4.5]dec-3-en-2-one]
pIC50 ([1]; Assay B1, ADP-Glo, read-out: ACC 1 (=B1) IC50): 6.64
pIC50 (MCF7; MCF7 cells): 6.61
inhibition in vivo at 10 mg/kg [2, 9]: 39%
pIC50 [3]: 5.30

SMILES: CCc1cc(-c2ccccc2)cc(Cl)c1C1C(=O)N2CCOCCN2C1=O [V-1]
pIC50 [6]: 9.30

SMILES: COC1CCC2(CC1)NC(=O)C(c1c(C)cc(-c3ccc(Cl)cc3)cc1C)=C2O (stereo not shown) [V-2]
pIC50 [6]: 7.40

SMILES: COC1CCC2(CC1)NC(=O)C(c1c(C)cc(OC(F)(F)F)cc1Cl)=C2O (stereo not shown) [V-3]
pIC50 [6]: 8.70
